Results from PMC8245078, “Development of novel benzofuran-isatin conjugates as potential antiproliferative agents with apoptosis inducing mechanism in Colon cancer” (Journal of Enzyme Inhibition and Medicinal Chemistry, 2021).
Where two headings read alike, the source gives them in different places.

Key:
Assay in all cases: NCI single dose screening (10 µM)
Format in all cases: cell-based
OVCAR-5 = conditions: Homo sapiens; OVCAR-5, Ovarian cancer, single dose 10^−5 M; read-out: GI% (cell growth inhibition percentage)
HCT-15 = conditions: Homo sapiens; HCT-15, Colon cancer, single dose 10^−5 M; read-out: GI% (cell growth inhibition percentage)
SR = conditions: Homo sapiens, Leukaemia, single dose 10^−5 M, read-out: GI% (cell growth inhibition percentage)
SK-MEL-28 = conditions: Homo sapiens; SK-MEL-28, Melanoma, single dose 10^−5 M; read-out: GI% (cell growth inhibition percentage)
SK-MEL-2 = conditions: Homo sapiens; SK-MEL-2, Melanoma, single dose 10^−5 M; read-out: GI% (cell growth inhibition percentage)
UACC-62 = conditions: Homo sapiens; UACC-62, Melanoma, single dose 10^−5 M; read-out: GI% (cell growth inhibition percentage)
SF-295 = conditions: Homo sapiens; SF-295, CNS cancer, single dose 10^−5 M; read-out: GI% (cell growth inhibition percentage)
SNB-19 = conditions: Homo sapiens; SNB-19, CNS cancer, single dose 10^−5 M; read-out: GI% (cell growth inhibition percentage)
MDA-MB-435 = conditions: Homo sapiens; MDA-MB-435, Melanoma, single dose 10^−5 M; read-out: GI% (cell growth inhibition percentage)
HS 578 T = conditions: Homo sapiens; HS 578 T, Breast cancer, single dose 10^−5 M; read-out: GI% (cell growth inhibition percentage)
DU-145 = conditions: Homo sapiens; DU-145, Prostate cancer, single dose 10^−5 M; read-out: GI% (cell growth inhibition percentage)
PC-3 = conditions: Homo sapiens; PC-3, Prostate cancer, single dose 10^−5 M; read-out: GI% (cell growth inhibition percentage)
IGROV1 = conditions: Homo sapiens, IGROV-1; IGROV1, Ovarian cancer, single dose 10^−5 M; read-out: GI% (cell growth inhibition percentage)
OVCAR-8 = conditions: Homo sapiens; OVCAR-8, Ovarian cancer, single dose 10^−5 M; read-out: GI% (cell growth inhibition percentage)
786-0 = conditions: Homo sapiens; 786-0, Renal cancer, single dose 10^−5 M; read-out: GI% (cell growth inhibition percentage)
MOLT-4 = conditions: Homo sapiens; MOLT-4, Leukaemia, single dose 10^−5 M; read-out: GI% (cell growth inhibition percentage)
HL-60(TB) = conditions: Homo sapiens
TK-10 = conditions: Homo sapiens; TK-10, Renal cancer, single dose 10^−5 M; read-out: GI% (cell growth inhibition percentage)
COLO 205 = conditions: Homo sapiens; COLO 205, Colon cancer, single dose 10^−5 M; read-out: GI% (cell growth inhibition percentage)
NCI-H522 = conditions: Homo sapiens; NCI-H522, Non-small cell lung cancer, single dose 10^−5 M; read-out: GI% (cell growth inhibition percentage)
NCI-H23 = conditions: Homo sapiens; NCI-H23, Non-small cell lung cancer, single dose 10^−5 M; read-out: GI% (cell growth inhibition percentage)
CAKI-1 = conditions: Homo sapiens; CAKI-1, Renal cancer, single dose 10^−5 M; read-out: GI% (cell growth inhibition percentage)
[1] = HL-60(TB), Leukaemia, single dose 10^−5 M, read-out: GI% (cell growth inhibition percentage)

SMILES	inhibition at 10 µM (OVCAR-5) [%]	inhibition at 10 µM (HCT-15) [%]	inhibition at 10 µM (SR) [%]	inhibition at 10 µM (SK-MEL-28) [%]	inhibition at 10 µM (SK-MEL-2) [%]	inhibition at 10 µM (UACC-62) [%]	inhibition at 10 µM (SF-295) [%]	inhibition at 10 µM (SNB-19) [%]	inhibition at 10 µM (MDA-MB-435) [%]	inhibition at 10 µM (HS 578 T) [%]	inhibition at 10 µM (DU-145) [%]	inhibition at 10 µM (PC-3) [%]	inhibition at 10 µM (IGROV1) [%]	inhibition at 10 µM (OVCAR-8) [%]	inhibition at 10 µM (786-0) [%]	inhibition at 10 µM (MOLT-4) [%]	inhibition at 10 µM (TK-10) [%]	inhibition at 10 µM (COLO 205) [%]	inhibition at 10 µM (NCI-H522) [%]	inhibition at 10 µM (NCI-H23) [%]	further results
Cc1c(C(=O)N/N=C2\C(=O)Nc3ccc(F)cc32)oc2ccccc12 [Compound 5b]	< 10	< 10	< 10	< 10	< 10	10.9	< 10	< 10	< 10	< 10	< 10	< 10	33.7	< 10	< 10	< 10	< 10	< 10	10.4	< 10	inhibition at 10 µM (HL-60(TB); [1]): < 10%; inhibition at 10 µM (CAKI-1): 19.5%
Cc1c(C(=O)N/N=C2\C(=O)Nc3ccc(Br)cc32)oc2ccccc12 [Compound 5c]	< 10	< 10	17.6	< 10	< 10	30.9	20.3	31.5	< 10	46.3	17	13.8	44.6	22.5	34.7	< 10	< 10	< 10	10.3	33	inhibition at 10 µM (HL-60(TB); [1]): 21.5%; inhibition at 10 µM (CAKI-1): 26.6%
COc1ccc2c(c1)/C(=N/NC(=O)c1oc3ccccc3c1C)C(=O)N2 [Compound 5d]	52.3	50.9	56.5	84.2	29.1	65.7	95	57.3	61	74.5	82.4	78.2	93.7	62.2	167	49.1	194	77.2	45.7	89.3	inhibition at 10 µM (HL-60(TB); HL-60, read-out: GI% (cell growth inhibition percentage)): 46.1%; inhibition at 10 µM (CAKI-1): 152%
